Assay in all cases: inhibition of tumour cell growth, NCI panel, 48 h
The test system of assay [1] is HOP-92 NSCLC.
The subject of assay [2] is COLO 205 colon.
Assay [3] deals with CCRF-CEM leukemia.
Assay [4] relates to HL-60(TB) leukemia.
In assay [5] the test system is SK-OV-3 ovarian.
The test system of assay [6] is RXF 393 renal.
Assay [7] deals with NCI/ADR-RES ovarian.
In assay [8] the test system is T-47D breast.
The test system of assay [9] is SF-268 CNS.
For assay [10], the system named is A498 renal.
Assay [11] relates to SR leukemia.
Assay [12] concerns NCI-H460 lung.
For assay [13], the system named is LOX IMVI melanoma.
Assay [14] deals with SW-620 colon.
In assay [15] the test system is DU-145 prostate.
The subject of assay [16] is HOP-62 NSCLC.
For assay [17], the system named is MOLT-4 leukemia.
Assay [18] concerns NCI-H522 lung.

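Each compound was tested at five concentrations against cells in 96-well plates for 48 hours. Definition used: TGI = concentration required for complete inhibition of growth.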 Where a SMILES comes first, the peptide text is derived from it. The star is where a group is joined. Boc = CC(C)(C)OC(=O)* Some results are limits rather than exact numbers.

As for `CC(C)=CCC[C@@H](C)C1=C(O)C(Nc2ccccc2Br)=C(C)C(=O)C1=O`, the TGI in assay [1] was 30.8 µM; in assay [2], 32.3 µM; in assay [3], 12.7 µM; in assay [4], 5.52 µM; in assay [5], 68 µM; in [6], 32.9 µM. The TGI was 28.8 µM in assay [7]; 66.4 µM in assay [8]; over 50.4 µM in assay [9]; 45.2 µM in assay [10]; 45 µM in [11]; over 64.8 µM in [12]. For the same compound, the TGI is over 100 µM in assay [13]; 52.1 µM in assay [14]; 20.7 µM in [15]; 36.8 µM in assay [16]; 25.5 µM in assay [17].
For the compound `COC(OC)C1OC(CO)C(n2cc(C)c(=O)[nH]c2=O)C1O` (stereo unspecified), the TGI in assay [1], in assay [2], in [3], in assay [5], in assay [6] and in assay [7] was over 100 µM throughout. Besides, the TGI in [8], in [9], in assay [10], in [11], in assay [12] and in assay [13] was over 100 µM in each case. Also, the TGI in [14], in assay [15], in assay [16], in [17] and in assay [18] was over 100 µM in each case.
As for `O=C1/C(=C\c2ccc(Cl)cc2Cl)Sc2scc(-c3cccc([N+](=O)[O-])c3)[n+]21`, the TGI in assay [1] is 18.3 µM; in assay [2], 2.56 µM; in [5], over 56.4 µM; in [6] it was 14.6 µM; in assay [7] it was 41.9 µM; in [8] it was 57.8 µM. Moreover, the TGI in assay [9] is 57.8 µM; in assay [10] it was over 100 µM; in assay [11], over 100 µM; in assay [12], 29.7 µM; in assay [13], 3.47 µM; in assay [14], over 32.2 µM. Also, the TGI in assay [15] came out at 29 µM; in assay [16], 37.1 µM; in assay [17], 3.94 µM; in assay [18], 4.32 µM.
As for `CSC1=C(C(=O)Nc2ccc(Cl)cc2)C(N)=NC1=O`, the TGI in assay [2], in assay [3], in assay [4], in [5], in assay [6] and in assay [7] was over 100 µM in each case. Moreover, the TGI in [8], in [9], in assay [10], in assay [11], in [12] and in assay [13] was over 100 µM each time. The TGI in assay [14], in assay [15], in assay [17] and in [18] was over 100 µM each time.
Turning to `Cc1ccc(S(=O)(=O)N2CCN(S(=O)(=O)c3ccc(C)cc3)Cc3ccccc3C2)cc1`, the TGI in assay [2], in [3], in assay [4], in [7], in assay [8] and in assay [9] was over 100 µM each time. Further, the TGI in assay [11] was over 100 µM; in assay [12] it was over 100 µM; in assay [13] it was over 100 µM; in [14] it was over 100 µM; in assay [15] it was over 100 µM; in [16], 51.5 µM. Further, the TGI in assay [17] was over 100 µM; in assay [18], 95 µM.
For `CC1Cc2c(Br)nc(N)nc2NC1=O` (stereo unspecified), the TGI in assay [2], in assay [5], in assay [7], in assay [8], in assay [9] and in assay [10] was over 100 µM each time. Also, the TGI in assay [11], in assay [12], in assay [13], in [14], in assay [15] and in [16] was over 100 µM throughout. Moreover, the TGI in [17] and in [18] was over 100 µM throughout.
As for `COc1ccccc1C1SCC(=O)N1c1ccc(-n2c(-c3ccccc3)nc3ccccc3c2=O)cc1` (stereo unspecified), the TGI in [1], in assay [2], in assay [3], in assay [5], in assay [7] and in assay [8] was over 100 µM throughout. Moreover, the TGI in [9], in assay [10], in assay [11], in assay [12], in assay [13] and in assay [14] was over 100 µM throughout. For the same compound, the TGI in assay [15], in [16], in assay [17] and in [18] was over 100 µM in each case.
Consider `CC(NC(=O)C(NC(=O)OC(C)(C)C)C(C)C)C(=O)N1CCCC1C(=O)NCC(=O)NC(C(=O)NCC(=O)O)C(C)C` (stereo unspecified) (Boc-VAPGVG-OH; configuration not given here), for which the TGI in assay [1], in [2], in assay [3], in [4], in assay [5] and in [7] was over 100 µM in each case. Further, the TGI in [8], in [9], in assay [10], in assay [11], in assay [12] and in assay [13] was over 100 µM each time. The TGI in assay [14], in assay [15], in assay [16], in [17] and in [18] was over 100 µM throughout.
On to `O=c1[nH]nc(Cc2ccccc2)n1/N=C/c1c(O)ccc2ccccc12`, for which the TGI was 50.3 µM in assay [1]; over 100 µM in assay [2]; over 100 µM in assay [3]; 49.6 µM in assay [6]; 64.2 µM in assay [7]; 77.1 µM in assay [8]. The TGI in [9] is 90.6 µM; in assay [10] it was 47.4 µM; in assay [11], 59.9 µM; in assay [13], over 100 µM; in assay [14], over 100 µM; in assay [15], over 100 µM. Also, the TGI was 79.2 µM in assay [17] and 35.5 µM in [18].

Values taken from PubChem BioAssay (NCI).
